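Each compound was tested at five concentrations against cells in 96-well plates for 48 hours. TGI: concentration producing complete growth inhibition.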
Experiments:
Test in all cases: NCI tumour cell line growth inhibition, 48 h
MCF7 breast = system: MCF7 breast
SK-OV-3 ovarian = system: SK-OV-3 ovarian
SK-MEL-5 melanoma = system: SK-MEL-5 melanoma
NCI-H522 lung = system: NCI-H522 lung
HOP-62 NSCLC = system: HOP-62 NSCLC
OVCAR-4 ovarian = system: OVCAR-4 ovarian
OVCAR-8 ovarian = system: OVCAR-8 ovarian
MDA-MB-435 = system: MDA-MB-435
NCI/ADR-RES ovarian = system: NCI/ADR-RES ovarian
MDA-N = system: MDA-N
HOP-92 NSCLC = system: HOP-92 NSCLC
A549 NSCLC = system: A549 NSCLC
SK-MEL-28 melanoma = system: SK-MEL-28 melanoma
M14 melanoma = system: M14 melanoma
SN12C renal = system: SN12C renal
NCI-H460 lung = system: NCI-H460 lung
HCT-116 colon = system: HCT-116 colon
MOLT-4 leukemia = system: MOLT-4 leukemia
MALME-3M melanoma = system: MALME-3M melanoma
KM12 colon = system: KM12 colon

| Structure (SMILES) | TGI (MCF7 breast) [µM] | TGI (SK-OV-3 ovarian) [µM] | TGI (SK-MEL-5 melanoma) [µM] | TGI (NCI-H522 lung) [µM] | TGI (HOP-62 NSCLC) [µM] | TGI (OVCAR-4 ovarian) [µM] | TGI (OVCAR-8 ovarian) [µM] | TGI (MDA-MB-435) [µM] | TGI (NCI/ADR-RES ovarian) [µM] | TGI (MDA-N) [µM] | TGI (HOP-92 NSCLC) [µM] | TGI (A549 NSCLC) [µM] | TGI (SK-MEL-28 melanoma) [µM] | TGI (M14 melanoma) [µM] | TGI (SN12C renal) [µM] | TGI (NCI-H460 lung) [µM] | TGI (HCT-116 colon) [µM] | TGI (MOLT-4 leukemia) [µM] | TGI (MALME-3M melanoma) [µM] | TGI (KM12 colon) [µM] |
| --- | --- | --- | --- | --- | --- | --- | --- | --- | --- | --- | --- | --- | --- | --- | --- | --- | --- | --- | --- | --- |
| COC12OC3(C4OC41)C(C(=O)O[C@H]3CO[Si](C)(C)C(C)(C)C)C2C(=O)Oc1ccccc1 (stereo not given in full) | > 100 | > 100 | > 100 | > 100 | > 100 | > 100 | > 100 | > 100 | > 100 | > 100 | > 100 | > 100 | > 100 | > 100 | > 100 | > 100 | > 100 | > 100 | > 100 | > 100 |
| O=C(Cc1ccccc1)NNc1nc(NNC(=O)c2ccncc2)nc(Nc2ccc([N+](=O)[O-])cc2)n1 | > 10 | > 10 | > 10 | > 10 | > 10 | > 10 | > 10 | > 10 | > 10 | > 10 | > 10 | > 10 | > 10 | > 10 | > 10 | > 10 | > 10 | > 10 | > 10 | > 10 |
| O=CC(=C(I)I)c1ccccc1 | 16.2 | 29.9 | 14 | 4.06 | 19.5 | 4.37 | 6.95 | 5.65 | > 38.5 | 4.81 | 6.57 | 41.8 | 7.36 | 4.6 | 6.39 | 40.9 | 2.78 | 0.944 | 4.4 | 12.7 |
| CS(=O)(=O)N1CC(CCl)c2ccc([N+](=O)[O-])cc21 (stereo not given) | > 100 | > 100 | > 100 | > 100 | > 100 | > 100 | > 100 | > 100 | > 100 | > 100 | > 100 | > 100 | > 100 | > 100 | > 100 | > 100 | > 100 | > 100 | > 100 | > 100 |
| O=c1c2nn3c(=O)n(-c4ccccc4)c(=O)c3nn2c(=O)n1-c1ccccc1 | > 100 | > 100 | > 100 | > 100 | > 100 | > 100 | > 100 | > 100 | > 100 | > 100 | > 100 | > 100 | > 100 | > 100 | > 100 | > 100 | > 100 | > 100 | > 100 | > 100 |
| c1ccc([P+](Cc2ccc(C[P+](c3ccccc3)(c3ccccc3)c3ccccc3)cc2)(c2ccccc2)c2ccccc2)cc1 | > 100 | > 100 | 90.1 | > 100 | > 100 | > 100 | > 100 | > 100 | > 100 | > 100 | 93.4 | > 100 | > 100 | > 100 | > 100 | > 100 | > 100 | > 100 | > 100 | > 100 |
| COc1ccc2c(C)cc(N/N=C(\C)C=O)nc2c1 | 26 | 23.2 | 26.7 | 29.6 | 27.1 | 25.5 | 25 | 25.5 | 25.7 | 28.6 | 25.1 | 38.6 | 32.4 | 35.2 | 26.8 | 24.9 | 26.5 | 15.9 | 28 | 25.8 |
| CN(CC1(CO)CCC1)c1cc(Cl)nc(N)n1 | > 100 | > 100 | > 100 | > 100 | > 100 | > 100 | > 100 | > 100 | > 100 | > 100 | > 100 | > 100 | > 100 | > 100 | > 100 | > 100 | > 100 | > 100 | > 100 | > 100 |
| CN(C)CCCNC(=O)CCNC(=O)c1cc(NC(=O)c2cc(NC(=O)c3cc(NC(=O)c4nc(NC(=O)CCCNC(=O)c5cc(NC(=O)c6cc(NC(=O)c7cc(NC(=O)c8nccn8C)cn7C)cn6C)cn5C)cn4C)cn3C)cn2C)cn1C | > 100 | > 100 | > 100 | > 100 | > 100 | > 100 | > 100 | > 100 | > 100 | > 100 | > 100 | > 100 | > 100 | > 100 | > 100 | > 100 | > 100 | > 100 | > 100 | > 100 |
| CC(NNC(=O)c1ccncc1)c1ccc(F)cc1 (stereo not given) | > 100 | > 100 | > 100 | > 100 | > 100 | > 100 | > 100 | > 100 | > 100 | > 100 | > 100 | > 100 | > 100 | > 100 | > 100 | > 100 | > 100 | > 100 | > 100 | > 100 |
| Cc1ccc(C2=Nc3cccc4cccc(c34)N2)cc1 | > 100 | > 100 | > 100 | > 100 | > 100 | > 100 | > 100 | > 100 | > 100 | > 100 | > 100 | > 100 | > 100 | > 100 | > 100 | > 100 | > 100 | > 100 | > 100 | > 100 |
| O=C(C1OC1c1ccc(O)cc1)C12CC3CC(CC(C3)C1)C2 (stereo not given) | > 100 | > 100 | > 100 | 24.7 | > 100 | > 100 | > 100 | > 55 | > 100 | > 75 | 57.4 | > 100 | > 100 | > 100 | > 69.7 | > 100 | > 69.8 | > 55.2 | 98.9 | > 100 |
| COC(=O)c1ccccc1CC1Cc2ccc3c(c2C1=O)CCC3 (stereo not given) | 90.3 | > 100 | 62.3 | 88 | > 100 | > 100 | > 100 | 78.7 | > 100 | > 100 | 94.9 | > 100 | > 100 | > 100 | > 100 | > 100 | > 100 | > 100 | > 100 | > 100 |
| N=c1oc2c(Cl)cc(Cl)cc2cc1C(=O)Nc1cccc2ccccc12 | > 100 | > 77.6 | > 100 | > 100 | 42.3 | 6.37 | 14.2 | > 100 | 28.2 | > 100 | 97.7 | > 100 | > 100 | > 100 | 12.8 | 62.1 | 40.6 | > 37.5 | > 100 | > 100 |
| NC(=O)c1cc2cc(Cl)cc(Cl)c2oc1=Nc1ccc(F)cc1 | 45.1 | 56.5 | 31.7 | 38.1 | > 100 | 70.6 | > 100 | 44.2 | 34.5 | 66.5 | 80.4 | 70.1 | 46.3 | 45.5 | 38 | 35.5 | 38.3 | 37.1 | 43 | > 100 |
| O=c1cc(NNc2ccccc2)[nH]c(=S)[nH]1 | > 100 | > 100 | > 100 | 35.7 | > 100 | > 100 | > 100 | > 100 | > 100 | > 100 | > 100 | > 100 | > 100 | > 100 | > 100 | > 100 | 53.9 | 91.7 | > 100 | > 100 |
| NC(=O)NNc1nc2ccccc2c(=O)n1NC(=O)C(=O)Nc1ccc(Cl)cc1Cl | > 100 | > 100 | > 100 | > 100 | > 100 | > 100 | > 100 | > 100 | > 100 | > 100 | > 100 | > 100 | > 100 | > 100 | > 100 | > 100 | > 100 | > 100 | > 100 | > 100 |
| O=C(CCCN1CCC2(CC1)OC(=O)N(c1ccccc1)C2=O)c1ccccc1 | > 100 | > 100 | > 100 | > 100 | > 100 | > 100 | > 100 | > 100 | > 100 | > 100 | > 100 | > 100 | > 100 | > 100 | > 100 | > 100 | > 100 | > 100 | > 100 | > 100 |
